Results on one compound are retold here after ChEMBL document CHEMBL5727714, “Amino compounds for treatment of medical disorders” (2020).

Each structure is given as a SMILES string.

For this experiment, the target named is Complement factor D (Homo sapiens, UniProt P00746). As to the kind of experiment: Inhibition Assay: Human Factor D (purified from human serum, Complement Technology, Inc.) at 80 nM final concentration is incubated with test compound at various concentrations for 5 minutes at room temperature in 50 mM Tris, 1M NaCl, pH 7.5. A synthetic substrate Z-L-Lys-SBzl and DTNB (Ellman's reagent) are added to final concentrations of 100 Î¼M each. Absorbance at 405 nm (A405) is recorded at 30 second intervals for 30 minutes using a microplate spectrophotometer. IC50 values are calculated by nonlinear regression of complement Factor D reaction rates as a function of test compound concentration.
Complement factor D, sequence (P00746 whole entry): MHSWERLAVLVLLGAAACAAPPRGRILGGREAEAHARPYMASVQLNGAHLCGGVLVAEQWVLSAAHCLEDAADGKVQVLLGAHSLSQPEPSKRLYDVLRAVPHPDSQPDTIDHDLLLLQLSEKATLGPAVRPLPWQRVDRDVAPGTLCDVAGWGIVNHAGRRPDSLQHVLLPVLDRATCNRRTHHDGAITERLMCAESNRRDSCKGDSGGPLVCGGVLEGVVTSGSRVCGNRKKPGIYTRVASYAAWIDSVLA

In general, IC50 refers to the concentration that inhibits the measured activity by half. For the compound `CC(=O)c1cn(CC(=O)N2C[C@H](F)C[C@H]2C(=O)Nc2cccc(Cl)c2C(F)(F)F)c2ccc(Nc3cncnc3)cc12`, the IC50 was less than 1000 nM.
